Reference: patent publication US11547703B2, “Substituted fused heteroaromatic tricyclic compounds as kinase inhibitors and the use thereof” (IMPACT THERAPEUTICS (SHANGHAI), INC, priority 2017, dated 2023)

Key:
ATM enzyme (human) = ATM enzyme (human) (Homo sapiens, UniProt Q13315); experiment: ATM kinase assay (HTRF, phosphorylation of GST-cMyc-p53); assay type: biochemical
Method: ATM enzyme (human) was added to the reaction solution containing 30 nM GST-cMyc-p53 and 10 μM Mg/ATP, and then 50 times the concentration of the tested compound (or reference compound AZD0156) dissolved in 100% DMSO was added to the final concentration of 10 μM/1 μM/0.1 μM/0.01 μM. The reaction was initiated by the addition of a Mg/ATP mixture and incubation for 30 minutes at room temperature, the reaction was quenched by the addition of a stop solution containing EDTA. Finally, the detection buffer containing the d2-labeled anti-GST monoclonal antibody and the europium-labeled anti-phospho p53 (Ser15) antibody was added. The plate was then read in time resolved fluorescence mode and the homogeneous time resolved fluorescence (HTRF) signal was determined according to the equation: HTRF=10000×(Em665nm/Em620nm). Each compound sample was repeated in duplicate. The negative control contained all components except the ATM enzyme, and the positive control contained all components. All reactions were quenched by adding EDTA.
The compounds were serially diluted to 10 concentrations with 100% DMSO at the ratio of 1:3 and 1:10 (the last concentration was negative control of DMSO), then added to the ATM buffer and diluted to a final concentration of 10, 3, 1, 0.3, 0.1, 0.03, 0.01, 0.003, 0.001 and 0 μM, respectively. ATM kinase inhibition was detected by using the method described above. The curve equation for calculating IC50 value is as follows: […]
wherein, C is the concentration of compound and D is the slope factor. Table 2 summarizes the IC50 values of compounds inhibiting ATM kinase.

[1] = system: human colon cancer cell SW620; experiment: MTT assay, growth of SW620 cells, compounds combined with CPT-11; assay type: cell-based; conditions: 205 nM CPT-11, 5 days, MTT
Method: (§1) SW620 cells were digested by trypsinase, centrifuged at 800 rpm for 5 minutes, the supernatant was discarded, resuspended with fresh medium (RPMI 1640 medium+10% FBS) and counted. The cells were seeded into 96-well cell culture plate with appropriate cell density and incubated overnight in a 37° C. 5% CO2 incubator. The stock solutions of the tested compound and the reference compound AZD0156 were serially diluted to 8 concentrations by DMSO at the ratios of 1:3 and 1:10, respectively, and the last concentration was negative control of DMSO (0 μM, the final concentration of DMSO was 1%). 5 μL of each concentration was added to 120 μL of medium (25 times diluted) and mixed by shaking. The overnight cells were taken and the culture medium was removed, 195 μL of fresh medium containing 205 nM CPT-11 was added to each well, and 5 μL of diluted medium containing the corresponding concentration of the tested sample was added respectively, and the culture plate was then placed in the 5% CO2 cell culture incubator at 37° C. for 5 days. After removing the original solution, 100 μL of fresh serum-free DMEM medium containing MTT (0.5 mg/mL) was added to each well, the culture was continued. After 4 hours, the original solution was removed, 100 μL of DMSO was added into each well, the 96-well plates were shaken away from light for 10 minutes and placed in a multi-function reader to read the absorbance at the wavelength of 552/630/690 nm. GraphPad Prism 6.0 was used to analyze the data. The inhibitory activity of compounds on cell proliferation was plotted based on cell viability and compound concentration. The IC50 value was fitted by a sigmoidal dose response curve equation Y=100/(1+10^(Log C−Log IC50)), where C was the concentration of compound.

[2] = system: human breast cancer cell MDA-MB-468; experiment: MTT assay, growth of MDA-MB-468 cells; assay type: cell-based; conditions: single agent, 7 days, MTT
Method: as §1, with “MDA-MB-468 cells” for “SW620 cells”, “1:10, respectively:” for “1:10, respectively, and”, “medium (PRMI 1640+5% FBS)” for “medium containing 205 nM CPT-11”, “for 7 days (On the fourth day, the medium containing drugs was removed and fresh medium containing drugs was added for continuous cultivation).” for “for 5 days.”

[3] = 0.5 h, detected concentration 1 μm
[4] = Homo sapiens, MDA-MB-468, 168 h

Sequence of ATM enzyme (human) (Q13315 whole entry): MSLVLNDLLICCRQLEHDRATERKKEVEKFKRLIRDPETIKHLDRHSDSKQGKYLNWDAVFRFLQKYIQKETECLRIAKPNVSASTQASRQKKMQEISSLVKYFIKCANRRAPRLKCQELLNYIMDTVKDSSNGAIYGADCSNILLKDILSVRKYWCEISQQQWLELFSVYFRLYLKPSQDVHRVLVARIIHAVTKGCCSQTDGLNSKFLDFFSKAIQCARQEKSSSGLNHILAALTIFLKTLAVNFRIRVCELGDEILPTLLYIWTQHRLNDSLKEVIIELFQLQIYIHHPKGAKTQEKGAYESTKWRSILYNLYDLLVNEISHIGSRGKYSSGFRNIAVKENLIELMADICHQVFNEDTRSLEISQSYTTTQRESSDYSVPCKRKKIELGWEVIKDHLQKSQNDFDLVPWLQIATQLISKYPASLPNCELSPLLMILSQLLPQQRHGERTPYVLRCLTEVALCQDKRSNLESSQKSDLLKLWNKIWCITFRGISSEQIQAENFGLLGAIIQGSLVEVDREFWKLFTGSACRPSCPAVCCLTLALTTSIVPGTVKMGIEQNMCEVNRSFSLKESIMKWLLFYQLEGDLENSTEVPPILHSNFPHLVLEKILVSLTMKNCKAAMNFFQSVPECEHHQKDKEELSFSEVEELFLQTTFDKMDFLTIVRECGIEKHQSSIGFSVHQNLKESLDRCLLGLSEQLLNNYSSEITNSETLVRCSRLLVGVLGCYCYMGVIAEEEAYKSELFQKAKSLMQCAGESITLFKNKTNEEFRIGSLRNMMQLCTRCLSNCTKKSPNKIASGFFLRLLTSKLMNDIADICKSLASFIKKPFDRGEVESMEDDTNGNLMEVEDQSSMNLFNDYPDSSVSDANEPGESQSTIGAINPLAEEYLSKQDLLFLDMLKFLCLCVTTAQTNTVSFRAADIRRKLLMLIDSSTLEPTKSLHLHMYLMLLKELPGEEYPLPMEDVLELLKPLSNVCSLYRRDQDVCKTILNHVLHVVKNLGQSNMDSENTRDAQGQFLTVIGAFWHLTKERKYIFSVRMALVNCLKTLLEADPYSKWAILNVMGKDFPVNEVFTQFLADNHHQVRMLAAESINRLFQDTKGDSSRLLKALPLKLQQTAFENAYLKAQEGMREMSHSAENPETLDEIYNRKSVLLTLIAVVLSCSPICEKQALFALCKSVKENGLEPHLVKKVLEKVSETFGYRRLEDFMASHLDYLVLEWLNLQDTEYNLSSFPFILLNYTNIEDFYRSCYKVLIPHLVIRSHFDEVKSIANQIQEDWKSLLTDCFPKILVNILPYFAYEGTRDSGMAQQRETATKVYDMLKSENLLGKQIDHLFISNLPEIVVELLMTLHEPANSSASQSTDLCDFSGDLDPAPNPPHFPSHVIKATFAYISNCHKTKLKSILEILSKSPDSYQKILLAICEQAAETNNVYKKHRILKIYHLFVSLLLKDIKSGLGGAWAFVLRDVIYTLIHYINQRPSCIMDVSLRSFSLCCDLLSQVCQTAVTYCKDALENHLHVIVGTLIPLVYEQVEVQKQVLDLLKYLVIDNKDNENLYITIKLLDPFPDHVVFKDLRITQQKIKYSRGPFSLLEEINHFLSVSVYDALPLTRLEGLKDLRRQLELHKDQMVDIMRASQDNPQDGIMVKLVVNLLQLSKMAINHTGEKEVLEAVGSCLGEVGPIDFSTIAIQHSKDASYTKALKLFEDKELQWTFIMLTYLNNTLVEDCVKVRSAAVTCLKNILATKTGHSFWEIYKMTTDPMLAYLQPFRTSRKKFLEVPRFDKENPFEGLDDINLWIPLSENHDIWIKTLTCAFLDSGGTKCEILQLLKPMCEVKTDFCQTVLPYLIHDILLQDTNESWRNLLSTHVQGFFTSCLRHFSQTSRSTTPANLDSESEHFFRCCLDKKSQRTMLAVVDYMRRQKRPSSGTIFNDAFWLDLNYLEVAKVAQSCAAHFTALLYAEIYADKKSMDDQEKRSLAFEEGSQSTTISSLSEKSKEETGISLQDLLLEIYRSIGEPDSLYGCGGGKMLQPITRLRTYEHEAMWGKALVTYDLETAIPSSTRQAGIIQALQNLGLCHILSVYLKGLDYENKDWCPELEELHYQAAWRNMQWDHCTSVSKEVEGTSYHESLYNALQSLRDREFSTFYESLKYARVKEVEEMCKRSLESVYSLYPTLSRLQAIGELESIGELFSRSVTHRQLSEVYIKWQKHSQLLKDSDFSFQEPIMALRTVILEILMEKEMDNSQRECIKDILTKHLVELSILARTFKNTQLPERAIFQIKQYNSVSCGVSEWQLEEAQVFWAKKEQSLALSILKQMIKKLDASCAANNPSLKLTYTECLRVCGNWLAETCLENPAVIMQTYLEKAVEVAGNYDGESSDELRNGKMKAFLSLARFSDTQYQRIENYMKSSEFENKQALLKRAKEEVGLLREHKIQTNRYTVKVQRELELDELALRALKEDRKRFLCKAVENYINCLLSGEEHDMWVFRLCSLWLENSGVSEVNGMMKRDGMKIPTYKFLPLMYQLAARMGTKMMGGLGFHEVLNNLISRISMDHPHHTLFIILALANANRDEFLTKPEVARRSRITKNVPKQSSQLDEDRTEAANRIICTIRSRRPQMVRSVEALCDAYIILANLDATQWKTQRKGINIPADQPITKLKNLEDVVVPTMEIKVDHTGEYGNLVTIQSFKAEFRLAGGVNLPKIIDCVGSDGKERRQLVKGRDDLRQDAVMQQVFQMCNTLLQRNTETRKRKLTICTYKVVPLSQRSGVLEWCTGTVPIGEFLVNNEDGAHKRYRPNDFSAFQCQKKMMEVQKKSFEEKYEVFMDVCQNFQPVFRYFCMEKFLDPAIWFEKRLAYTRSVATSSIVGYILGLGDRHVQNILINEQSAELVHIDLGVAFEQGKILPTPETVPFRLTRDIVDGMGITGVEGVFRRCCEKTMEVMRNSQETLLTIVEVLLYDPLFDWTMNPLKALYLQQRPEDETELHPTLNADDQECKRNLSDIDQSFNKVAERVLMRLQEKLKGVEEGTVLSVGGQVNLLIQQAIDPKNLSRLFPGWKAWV

| inhibition at 1 µM (ATM enzyme (human); [3]) | IC50 ([1]; Homo sapiens, SW-620, 120 h) | IC50 [2, 4] | Molecule | further results |
| --- | --- | --- | --- | --- |
| 53% | > 10000 nM | > 10000 nM | CN1CCN(c2ccc(-c3cccc4nc5ccc(N6CCOCC6)cc5n34)cn2)CC1 [Example 16, 1-(6-(4-methylpiperazin-1-yl)pyridin-3-yl)-8-morpholinobenzo[4,5]imidazo[1,2-a]pyridine] | – |
| 37% | 3250 nM | 2620 nM | C[C@@H]1CN(c2ccc(-c3cccc4nc5ccc(N6CCOCC6)cc5n34)cn2)C[C@H](C)N1C [Example 17, 1-(6-((3S,5R)-3,4,5-trimethylpiperazin-1-yl)pyridin-3-yl)-8-morpholinobenzo[4,5]imidazo[1,2-a]pyridine] | – |
| 100% | > 1000 nM | > 1000 nM | C[C@@H]1CN(c2cccc3nc4ccc(-c5ccc(N6CCC(N(C)C)CC6)c(C(F)(F)F)c5)cn4c23)C[C@H](C)N1C [Example 48, N,N-dimethyl-1-(2-(trifluoromethyl)-4-(9-((3S,5R)-3,4,5-trimethylpiperazin-1-yl)benzo[4,5]imidazo[1,2-a]pyridin-2-yl)phenyl)piperidin-4-amine] | – |
| 100% | 152 nM | 55 nM | C[C@@H]1CN(c2cccc3nc4ccc(-c5ccc(N6CCC(N(C)C)CC6)c(F)c5)cn4c23)C[C@H](C)N1C [Example 46, N,N-dimethyl-1-(2-fluoro-4-(9-((3S,5R)-3,4,5-trimethylpiperazin-1-yl)benzo[4,5]imidazo[1,2-a]pyridin-2-yl)phenyl)piperidin-4-amine] | – |
| 97% | > 500 nM | > 100000 nM | CN(C)CCCOc1ccc(-c2ccc3nc4cccc(N5CCN(C)CC5)c4n3c2)cc1C(F)(F)F [Example 44, N,N-dimethyl-3-(2-(trifluoromethyl)-4-(9-(4-methylpiperazin-1-yl)benzo[4,5]imidazo[1,2-a]pyridin-2-yl)phenoxy)propan-1-amine] | – |
| – | 1240 nM | 1800 nM | C[C@@H]1CN(c2ncnc3nc4ccc(-c5ccc(N6CCC(N(C)C)CC6)cc5)nn4c23)C[C@H](C)N1C [Example 71, N,N-dimethyl-1-(4-(4-((3 S,5R)-3,4,5-trimethylpiperazin-1-yl)pyridazino[6,1-f]purin-7-yl)phenyl)piperidin-4-amine] | – |
| – | – | – | N,N-dimethyl-3-(2-(trifluoromethyl)-4-(942S,6R)-2,6-dimethylmorpholino)benzo[4,5]imidazo[1,2-a]pyridin-2-yl)phenoxy)propan-1-amine [Example 55] | IC50 [1]: 228 nM; IC50 [2]: 255 nM |
| – | 563 nM | 330 nM | CN(C)CCCOc1ccc(-c2ccc3nc4cccc(N5CCN(C)CC5)c4n3c2)cc1 [Example 3, N,N-dimethyl-3-(4-(9-(4-methylpiperazin-1-yl)benzo[4,5]imidazo[1,2-a]pyridin-2-yl)phenoxy)propan-1-amine] | – |
| – | 1340 nM | 2800 nM | CN(C)CCCOc1ccc(-c2ccc3nc4cccc(C5=CCOCC5)c4n3c2)cn1 [Example 1, N,N-dimethyl-3-((5-(9-(3,6-dihydro-2H-pyran-4-yl)benzo[4,5]imidazo[1,2-a]pyridin-2-yl)pyridin-2-yl)oxy)propan-1-amine] | IC50 (ATM enzyme (human); 10 concentrations, 10 to 0.001 μM, read-out: IC50 (nM), in vitro inhibitory effect on ATM kinase): 239 nM; inhibition at 10 µM (ATM enzyme (human); 0.5 h, detected concentration 10 μm): 100%; effect on ATM kinase (in words) (ATM enzyme (human); ATM kinase (human) assay): good effect |
| 100% | 166 nM | 60.5 nM | C[C@@H]1CN(c2cccc3nc4ccc(-c5ccc(N6CCC(N(C)C)CC6)c(Cl)c5)cn4c23)C[C@H](C)N1C [Example 47, N,N-dimethyl-1-(2-chloro-4-(9-((3S,5R)-3,4,5-trimethylpiperazin-1-yl)benzo[4,5]imidazo[1,2-a]pyridin-2-yl)phenyl)piperidin-4-amine] | – |
| 39% | 2420 nM | > 10000 nM | CN(C)CCCOc1ccc(-c2ccc3nc4cccc(NC5CCN(C)CC5)c4n3c2)cn1 [Example 15, N,N-dimethyl-3-((5-(9-(1-methylpiperidin-4-ylamino)benzo[4,5]imidazo[1,2-a]pyridin-2-yl)pyridin-2-yl)oxy)propan-1-amine] | – |
| 60% | 9310 nM | 3660 nM | CN(C)CCCOc1ccc(-c2ccc3nc4cccc(-n5ccnc5)c4n3c2)cn1 [Example 9, N,N-dimethyl-3-((5-(9-(1H-imidazol-1-yl)benzo[4,5]imidazo[1,2-a]pyridin-2-yl)pyridin-2-yl)oxy) propan-1-amine] | – |
| 100% | > 500 nM | 322 nM | C[C@@H]1CN(c2cccc3nc4ccc(-c5ccc(N6CCC(N(C)C)CC6)cc5)cn4c23)C[C@H](C)N1C [Example 45, N,N-dimethyl-1-(4-(9-((3S,5R)-3,4,5-trimethylpiperazin-1-yl)benzo[4,5]imidazo[1,2-a]pyridin-2-yl)phenyl)piperidin-4-amine] | – |
| 88% | 528 nM | 703 nM | CN(C)CCCOc1ccc(-c2ccc3nc4cccc(OC5CCN(C)CC5)c4n3c2)cn1 [Example 12, N,N-dimethyl-3-((5-(9-((1-methylpiperidin-4-yl)oxy)benzo[4,5]imidazo[1,2-a]pyridin-2-yl)pyridin-2-yl)oxy)propan-1-amine] | – |
| 77% | > 10000 nM | > 10000 nM | CN(C)CCCOc1ccc(-c2ccc3nc4cccc(CN5CCOCC5)c4n3c2)cn1 [Example 10, N,N-dimethyl-3-((5-(9-(morpholinomethyl)benzo[4,5]imidazo[1,2-a]pyridin-2-yl)pyridin-2-yl)oxy)propan-1-amine] | – |
| – | – | – | CN(C)CCCOc1ccc(-c2ccc3ncc4c(c3c2)n(C2CCOCC2)c(=O)n4C)cn1 [AZD0156, reference compound] | inhibition(%) of ATM kinase (ATM enzyme (human); detected concentration 1 μm): 100%; IC50 [1]: 8.5 nM; IC50 [2]: 10.6 nM |
| – | – | – | N,N-dimethyl-1-(2-(trifluoromethyl)-4-(942S,6R)-2,6-dimethylmorpholino)benzo[4,5]imidazo[1,2-a]pyridin-2-yl)phenyl)piperidin-4-amine [Example 54] | IC50 [1]: 193 nM; IC50 [2]: 220 nM |
| – | > 1000 nM | > 1000 nM | C[C@@H]1CN(c2cccc3nc4ccc(-c5ccc(OCCCN(C)C)c(F)c5)cn4c23)C[C@H](C)N1C [Example 50, N,N-dimethyl-3-(2-fluoro-4-(9-((3S,5R)-3,4,5-trimethylpiperazin-1-yl)benzo[4,5]imidazo[1,2-a]pyridin-2-yl)phenoxy)propan-1-amine] | – |
